Source: patent US6737383B1, “Herbicidal oxadiazolidines” (priority 1999, dated 2004)

Assays:
pigweed = test: Test B pre/postemergence pigweed; assay type: in vivo, Amaranthus retroflexus
Summary of the method: (§1)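 Response is a visual 0-to-10 score relative to untreated plants, where 0 means no effect and 10 means complete control, taken twelve to sixteen days after application. Treatments went onto soil at planting and onto foliage of 1- to 4-leaf plants, using a surfactant-containing non-phytotoxic solvent.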

morningglory = test: Test B pre/postemergence morningglory; assay type: in vivo, Ipomoea hederacea
Summary of the method: as §1

wild oat = test: Test B pre/postemergence wild oat; assay type: in vivo, Avena fatua
Summary of the method: as §1

[1] = Preemergence, Rate 62 g/ha, scale of 0 to 10 where 0 is no effect and 10 is complete control
[2] = Preemergence, Rate 250 g/ha, scale of 0 to 10 where 0 is no effect and 10 is complete control
[3] = Preemergence, Rate 500 g/ha, scale of 0 to 10 where 0 is no effect and 10 is complete control
[4] = Rate 62 g/ha, Postemergence, scale of 0 to 10 where 0 is no effect and 10 is complete control
[5] = Rate 125 g/ha, Postemergence, scale 0 to 10
[6] = Rate 125 g/ha, Preemergence, scale of 0 to 10 where 0 is no effect and 10 is complete control
[7] = Rate 500 g/ha, Postemergence, scale 0 to 10
[8] = Postemergence, Rate 62 g/ha, scale 0 to 10, 0 is no effect, 10 is complete control
[9] = Postemergence, Rate 125 g/ha, scale of 0 to 10 where 0 is no effect and 10 is complete control
[10] = Preemergence, Rate 62 g/ha, scale 0 to 10 (0 no effect, 10 complete control)
[11] = Preemergence, Rate 125 g/ha, scale 0 to 10 (0 no effect, 10 complete control)
[12] = Preemergence, Rate 500 g/ha, scale 0 (no effect) to 10 (complete control)
[13] = Rate 250 g/ha, Postemergence, scale 0 to 10, 0 is no effect, 10 is complete control
[14] = Rate 500 g/ha, Postemergence, scale 0 to 10, 0 no effect, 10 complete control
[15] = Postemergence, Rate 250 g/ha, scale 0 to 10, 0 is no effect, 10 is complete control
[16] = Postemergence, Rate 500 g/ha, scale of 0 to 10 where 0 is no effect and 10 is complete control
[17] = Preemergence, Rate 125 g/ha, scale of 0 to 10 where 0 is no effect and 10 is complete control
[18] = Preemergence, Rate 250 g/ha, scale 0 to 10, 0 is no effect, 10 is complete control
[19] = Preemergence, Rate 500 g/ha, scale 0 to 10, 0 is no effect, 10 is complete control
[20] = Postemergence, Rate 250 g/ha, scale 0 to 10
[21] = Rate 62 g/ha, Postemergence, scale 0 to 10 (0 no effect, 10 complete control)
[22] = Rate 125 g/ha, Postemergence, scale 0 to 10, 0 is no effect, 10 is complete control

Compound: CCOC(=O)C=CCn1c(=O)on(C(=O)N(c2ccc(F)cc2)C(C)C)c1=O [Compound 214]
- Redroot pigweed plant response rating (pigweed; [1]): 0
- Redroot pigweed plant response rating (pigweed; [2]): 6
- Plant response rating, Redroot pigweed (pigweed; [3]): 9
- Redroot pigweed plant response rating (pigweed; [4]): 0
- Redroot pigweed plant response rating (pigweed; [5]): 0
- Redroot pigweed plant response rating (pigweed; [6]): 0
- Plant response rating (0 to 10; 0 is no effect, 10 is complete control), Redroot pigweed (pigweed; Rate 250 g/ha, Postemergence): 1
- Redroot pigweed plant response rating (pigweed; [7]): 3
- Morningglory plant response rating (morningglory; [1]): 0
- Morningglory plant response rating (morningglory; [2]): 0
- Plant response rating, Morningglory (morningglory; [3]): 0
- Morningglory plant response rating (morningglory; [4]): 2
- Morningglory plant response rating (morningglory; [5]): 3
- Morningglory plant response rating (morningglory; [6]): 0
- Plant response rating (0 to 10; 0 is no effect, 10 is complete control), Morningglory (morningglory; Rate 250 g/ha, Postemergence): 6
- Morningglory plant response rating (morningglory; [7]): 7
- Wild oats plant response rating (wild oat; [1]): 0
- Wild oats plant response rating (wild oat; [2]): 0
- Plant response rating, Wild oats (wild oat; [3]): 0
- Wild oats plant response rating (wild oat; [4]): 0
- Wild oats plant response rating (wild oat; [5]): 0
- Wild oats plant response rating (wild oat; [6]): 0
- Plant response rating (0 to 10; 0 is no effect, 10 is complete control), Wild oats (wild oat; Rate 250 g/ha, Postemergence): 0

Compound: CC(C)N(C(=O)n1oc(=O)n(-c2cccc3c2CCCC3)c1=O)c1ccc(F)cc1 [Compound 90]
- Redroot pigweed plant response rating (pigweed; [8]): 2
- Redroot pigweed plant response rating (pigweed; [9]): 5
- Redroot pigweed plant response rating (pigweed; [10]): 0
- Plant response rating, Redroot pigweed (pigweed; [11]): 0
- Plant response rating, Redroot pigweed (pigweed; [2]): 0
- Redroot pigweed plant response rating (pigweed; [12]): 6
- Plant response rating, Redroot pigweed (pigweed; [13]): 6
- Redroot pigweed plant response rating (pigweed; [14]): 7
- Morningglory plant response rating (morningglory; [8]): 3
- Morningglory plant response rating (morningglory; [9]): 3
- Morningglory plant response rating (morningglory; Postemergence, Rate 250 g/ha, scale 0 to 10, 0 no effect, 10 complete control): 4
- Morningglory plant response rating (morningglory; [10]): 0
- Plant response rating, Morningglory (morningglory; [11]): 0
- Plant response rating, Morningglory (morningglory; [2]): 0
- Morningglory plant response rating (morningglory; [12]): 0
- Morningglory plant response rating (morningglory; [14]): 4
- Wild oats plant response rating (wild oat; [8]): 0
- Wild oats plant response rating (wild oat; [9]): 0
- Wild oats plant response rating (wild oat; [10]): 0
- Plant response rating, Wild oats (wild oat; [11]): 0
- Plant response rating, Wild oats (wild oat; [2]): 2
- Wild oats plant response rating (wild oat; [12]): 3
- Plant response rating, Wild oats (wild oat; [13]): 0
- Wild oats plant response rating (wild oat; [14]): 0

Compound: CC(=O)C(C)n1c(=O)on(C(=O)N(c2ccc(F)cc2)C(C)C)c1=O (stereo not drawn) [Compound 400]
- Plant response rating, Redroot pigweed (pigweed; [15]): 0
- Redroot pigweed plant response rating (pigweed; [16]): 0
- Plant response rating, Redroot pigweed (pigweed; [10]): 3
- Plant response rating, Redroot pigweed (pigweed; [17]): 4
- Redroot pigweed plant response rating (pigweed; [18]): 6
- Redroot pigweed plant response rating (pigweed; [19]): 6
- Redroot pigweed plant response rating (pigweed; [4]): 0
- Plant response rating, Morningglory (morningglory; [15]): 3
- Morningglory plant response rating (morningglory; [16]): 6
- Plant response rating, Morningglory (morningglory; [10]): 0
- Plant response rating, Morningglory (morningglory; [17]): 0
- Morningglory plant response rating (morningglory; [18]): 0
- Morningglory plant response rating (morningglory; [19]): 0
- Morningglory plant response rating (morningglory; [4]): 0
- Wild oats plant response rating (wild oat; [16]): 0
- Plant response rating, Wild oats (wild oat; [10]): 0
- Plant response rating, Wild oats (wild oat; [17]): 0
- Wild oats plant response rating (wild oat; [18]): 0
- Wild oats plant response rating (wild oat; [19]): 0
- Wild oats plant response rating (wild oat; [4]): 0

Compound: CC(C)N(C(=O)n1oc(=O)n(CC(=O)N(C)C)c1=O)c1ccc(F)cc1F [Compound 440]
- Redroot pigweed plant response rating (pigweed; [20]): 3
- Redroot pigweed plant response rating (pigweed; [16]): 4
- Plant response rating, Redroot pigweed (pigweed; [1]): 0
- Plant response rating, Redroot pigweed (pigweed; [17]): 4
- Redroot pigweed plant response rating (pigweed; [18]): 7
- Redroot pigweed plant response rating (pigweed; [19]): 10
- Redroot pigweed plant response rating (pigweed; [21]): 0
- Redroot pigweed plant response rating (pigweed; [22]): 1
- Morningglory plant response rating (morningglory; [20]): 8
- Plant response rating, Morningglory (morningglory; [1]): 0
- Plant response rating, Morningglory (morningglory; [17]): 0
- Morningglory plant response rating (morningglory; [18]): 0
- Morningglory plant response rating (morningglory; [19]): 0
- Morningglory plant response rating (morningglory; [21]): 2
- Morningglory plant response rating (morningglory; [22]): 8
- Wild oats plant response rating (wild oat; [20]): 0
- Wild oats plant response rating (wild oat; [16]): 5
- Plant response rating, Wild oats (wild oat; [1]): 0
- Plant response rating, Wild oats (wild oat; [17]): 5
- Wild oats plant response rating (wild oat; [18]): 9
- Wild oats plant response rating (wild oat; [19]): 9
- Wild oats plant response rating (wild oat; [21]): 0
- Wild oats plant response rating (wild oat; [22]): 0
